In paper PMC9885860 (Pharmacological research, 2021):
Where “and” joins values, the source holds several entries; their conditions need not be identical. Equal values may be shown once. Entries after “also recorded” stand apart in the source; their conditions may differ. Where a name gives a salt, the structure may show the parent alone. Read-outs that look alike come from different tables or passages of the source.

Tests used:
α2AR-D4.4R cells [1] = molecular target: T1, α2AR-D4.4R cells (Homo sapiens, UniProt P08913+P21917); test: Forskolin-induced cAMP accumulation, α2AR-D4.4R cells; type: cell-based; conditions: agonists 100 nM, forskolin 0.5 μM
T1 sequence (P08913 1-465): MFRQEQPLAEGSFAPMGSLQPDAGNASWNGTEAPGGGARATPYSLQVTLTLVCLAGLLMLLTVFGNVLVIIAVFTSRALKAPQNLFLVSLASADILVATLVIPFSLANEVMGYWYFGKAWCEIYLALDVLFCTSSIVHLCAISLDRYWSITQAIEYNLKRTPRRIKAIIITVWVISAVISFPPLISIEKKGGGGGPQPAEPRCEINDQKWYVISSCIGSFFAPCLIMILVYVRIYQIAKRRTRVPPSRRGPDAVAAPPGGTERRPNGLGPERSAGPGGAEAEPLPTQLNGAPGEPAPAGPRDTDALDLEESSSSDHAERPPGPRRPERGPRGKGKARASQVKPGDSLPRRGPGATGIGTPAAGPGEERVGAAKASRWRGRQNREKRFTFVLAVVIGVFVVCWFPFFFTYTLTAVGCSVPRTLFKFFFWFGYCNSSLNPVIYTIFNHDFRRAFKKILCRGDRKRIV
T1 sequence (P21917 1-419): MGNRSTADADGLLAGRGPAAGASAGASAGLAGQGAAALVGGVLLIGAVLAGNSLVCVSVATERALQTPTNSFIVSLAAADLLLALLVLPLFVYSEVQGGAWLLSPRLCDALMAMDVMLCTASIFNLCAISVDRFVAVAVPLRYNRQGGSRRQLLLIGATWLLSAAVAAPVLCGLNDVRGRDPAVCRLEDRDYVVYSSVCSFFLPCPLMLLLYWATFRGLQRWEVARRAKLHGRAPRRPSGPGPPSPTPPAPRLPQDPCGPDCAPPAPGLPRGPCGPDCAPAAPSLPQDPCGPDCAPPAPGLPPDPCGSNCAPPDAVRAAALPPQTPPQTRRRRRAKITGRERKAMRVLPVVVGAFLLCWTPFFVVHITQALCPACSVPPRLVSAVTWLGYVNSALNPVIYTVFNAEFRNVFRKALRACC

α2AR-D4.7R [2] = molecular target: α2AR-D4.7R (Homo sapiens, UniProt P08913+P21917); test: CODA-RET Gαi1 activation, α2AR-D4.7R heteromer; type: cell-based; conditions: for Emax: Gαi1, Table 2
α2AR-D4.7R (Homo sapiens, UniProt P08913+P21917), sequence (P62873 2-340, one chain of several): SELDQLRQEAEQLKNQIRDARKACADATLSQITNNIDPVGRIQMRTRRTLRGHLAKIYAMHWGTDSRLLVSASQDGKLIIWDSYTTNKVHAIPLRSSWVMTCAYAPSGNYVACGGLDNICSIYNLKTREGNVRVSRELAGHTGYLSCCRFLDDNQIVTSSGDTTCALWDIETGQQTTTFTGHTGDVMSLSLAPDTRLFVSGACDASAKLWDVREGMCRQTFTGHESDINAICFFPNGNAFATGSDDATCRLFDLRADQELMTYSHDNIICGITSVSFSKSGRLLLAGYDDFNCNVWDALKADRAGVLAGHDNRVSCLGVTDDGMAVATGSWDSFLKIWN
α2AR-D4.7R (Homo sapiens, UniProt P08913+P21917), sequence (P63096 2-354, one chain of several, further chain): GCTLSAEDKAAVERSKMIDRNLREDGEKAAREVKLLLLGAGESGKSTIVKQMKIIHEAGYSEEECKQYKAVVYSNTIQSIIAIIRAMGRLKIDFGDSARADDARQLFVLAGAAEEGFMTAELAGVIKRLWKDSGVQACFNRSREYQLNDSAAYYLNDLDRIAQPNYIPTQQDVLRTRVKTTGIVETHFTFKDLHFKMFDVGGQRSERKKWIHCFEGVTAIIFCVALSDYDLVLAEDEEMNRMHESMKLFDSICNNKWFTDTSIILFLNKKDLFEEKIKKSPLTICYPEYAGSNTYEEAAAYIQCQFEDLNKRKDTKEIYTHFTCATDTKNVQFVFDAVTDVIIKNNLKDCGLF
α2AR-D4.7R (Homo sapiens, UniProt P08913+P21917), sequence (P59768 2-68, one chain of several, further chain): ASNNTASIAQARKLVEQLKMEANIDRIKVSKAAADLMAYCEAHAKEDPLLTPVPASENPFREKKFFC

D4.7R-D4.7R = molecular target: T2, D4.7R-D4.7R (Homo sapiens, UniProt P21917); conditions: A-412997 1 μM; shift to the right of DA curve
T2 sequence (P21917 1-419): T1 sequence (P21917 1-419)

D4.7R = molecular target: T3, D4.7R (Homo sapiens, UniProt P21917); test: Receptor-G protein BRET, D4.7R fused to RLuc with Gαi1 or Gαo1; type: cell-based
T3 sequence (P21917 1-264 limits assumed): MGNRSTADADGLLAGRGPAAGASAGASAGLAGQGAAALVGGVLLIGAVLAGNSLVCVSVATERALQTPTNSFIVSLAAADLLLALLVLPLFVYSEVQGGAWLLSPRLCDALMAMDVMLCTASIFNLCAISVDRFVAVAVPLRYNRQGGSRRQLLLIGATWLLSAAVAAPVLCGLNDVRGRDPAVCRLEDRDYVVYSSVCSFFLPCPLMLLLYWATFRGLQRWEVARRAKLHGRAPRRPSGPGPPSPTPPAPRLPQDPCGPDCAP
T3 sequence (P21917 297-419 limits assumed): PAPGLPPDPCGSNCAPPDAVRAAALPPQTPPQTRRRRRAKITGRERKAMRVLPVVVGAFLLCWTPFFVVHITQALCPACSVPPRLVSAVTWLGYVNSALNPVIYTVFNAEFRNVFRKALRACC

α2AR-D4.4R cells [3] = molecular target: T1, α2AR-D4.4R cells; test: ERK1/2 phosphorylation, α2AR-D4.4R cells; type: cell-based; conditions: agonists 300 nM, 5 min
D4.4R-D4.4R = molecular target: T4, D4.4R-D4.4R (Homo sapiens, UniProt P21917); test: CODA-RET Gαi1 activation, D4.4R-D4.4R homomer; type: cell-based; conditions: A-412997 1 μM; shift to the right of DA curve
T4 sequence (P21917 1-419) 1: T1 sequence (P21917 1-419)
T4 sequence (P21917 1-419) 2: T1 sequence (P21917 1-419)

α2AR-D4.4R [4] = molecular target: T5, α2AR-D4.4R (Homo sapiens, UniProt P08913+P21917); test: CODA-RET Gαo1 activation, α2AR-D4.4R heteromer; type: cell-based; conditions: Fig. 4D
T5 sequence (P08913 1-465): T1 sequence (P08913 1-465)
T5 sequence (P21917 1-419): T1 sequence (P21917 1-419)

D4.4R [5] = molecular target: T6, D4.4R (Homo sapiens, UniProt P21917); test: Receptor-G protein BRET, D4.4R fused to RLuc with Gαi1 or Gαo1; type: cell-based
T6 sequence (P21917 1-419): T1 sequence (P21917 1-419)

[6] = test system: cortical slices from hD4.7R mice; test: ERK1/2 phosphorylation in cortical brain slices from knock-in hD4.7R mice; design: species or system mouse; conditions: agonists 1 μM
D4.4R [7] = molecular target: T6, D4.4R; type: binding
α2AR-D4.4R [8] = molecular target: T5, α2AR-D4.4R; type: binding; conditions: 12°C; control or in presence of A-412997 (30 nM)
α2R = molecular target: T7, α2R (Ovis aries, UniProt A0ACI6PY47); test: Competitive inhibition of [3H]RX821002 binding in sheep cortex membranes; conditions: read-out: KDB1 for α2R; vs [3H]RX821002, sheep cortex membranes
T7 sequence (A0ACI6PY47 1-467): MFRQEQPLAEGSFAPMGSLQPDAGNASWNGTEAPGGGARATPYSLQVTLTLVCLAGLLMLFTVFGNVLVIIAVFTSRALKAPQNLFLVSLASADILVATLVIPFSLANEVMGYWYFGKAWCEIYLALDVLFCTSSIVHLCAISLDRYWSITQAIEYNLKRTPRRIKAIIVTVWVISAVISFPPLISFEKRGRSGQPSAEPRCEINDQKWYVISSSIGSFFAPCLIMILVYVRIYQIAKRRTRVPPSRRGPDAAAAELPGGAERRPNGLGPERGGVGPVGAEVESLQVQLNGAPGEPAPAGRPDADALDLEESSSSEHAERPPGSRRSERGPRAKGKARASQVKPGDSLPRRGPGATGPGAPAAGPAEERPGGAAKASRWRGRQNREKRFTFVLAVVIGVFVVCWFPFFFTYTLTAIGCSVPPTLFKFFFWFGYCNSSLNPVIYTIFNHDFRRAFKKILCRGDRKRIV

α2AR-α2AR = molecular target: T8, α2AR-α2AR (Homo sapiens, UniProt P08913); test: CODA-RET Gαi1 activation, α2AR-α2AR homomer; type: cell-based; conditions: for Emax: Gαi1, Table 2
T8 sequence (P08913 1-465) 1: T1 sequence (P08913 1-465)
T8 sequence (P08913 1-465) 2: T1 sequence (P08913 1-465)

α2AR-D4.4R [9] = molecular target: T5, α2AR-D4.4R; test: CODA-RET Gαi1 activation, α2AR-D4.4R heteromer; type: cell-based; conditions: for Emax: Gαi1, Table 2
α2AR (with D4.7R) = molecular target: T9, α2AR (with D4.7R) (Homo sapiens, UniProt P08913); test: BRET α2AR-RLuc and Gαo1-mVenus, cells co-transfected with unfused D4.7R; type: cell-based; conditions: in the presence of D4.7R
T9 sequence (P08913 1-465): T1 sequence (P08913 1-465)

α2AR-D4.7R [10] = test: CODA-RET Gαo1 activation, α2AR-D4.7R heteromer; type: cell-based, human; conditions: Fig. 4E
α2AR (with D4.4R) = molecular target: T10, α2AR (with D4.4R) (Homo sapiens, UniProt P08913); test: BRET α2AR-RLuc and Gαo1-mVenus, cells co-transfected with unfused D4.4R; type: cell-based; conditions: in the presence of D4.4R
T10 sequence (P08913 1-465): T1 sequence (P08913 1-465)

human α2AR = molecular target: T11, human α2AR (Homo sapiens, UniProt P08913); test: [3H]RX821002 saturation binding in HEK-293T cells transfected with human α2AR; conditions: read-out: KDA1, n=3
T11 sequence (P08913 1-465): T1 sequence (P08913 1-465)

α2AR-D4.7R [11] = type: binding, human; conditions: 12°C; control or in presence of A-412997 (30 nM)
[12] = molecular target: human α2A adrenoceptor fused to Renilla luciferase RLuc8 (α2AR-RLuc) (human) (UniProt P08913); test: FRET or BRET
[13] = cells pretreated with antagonist

Compound: Cc1cccc(NC(=O)CN2CCC(c3ccccn3)CC2)c1.Cl.Cl [A-412997, A-412997 dihydrochloride]
- inhibition of forskolin-induced cAMP accumulation (α2AR-D4.4R cells [1]): more effective than dexmedetomidine
- Emax (α2AR-D4.7R [2]): 0 % of NE
- effect on DA-mediated Gi protein activation (D4.7R-D4.7R): competitive antagonist of DA
- Gαi1 activation (D4.7R; Gαi1-mVenus): did not promote
- Gαo1 activation (D4.7R; Gαo1-mVenus): did promote significant Gαo1 activation
- ERK1/2 phosphorylation (α2AR-D4.4R cells [3]): more effective in α2AR-D4.4R cells than in α2AR-D4.7R cells
- effect on DA-mediated Gi protein activation (D4.4R-D4.4R): competitive antagonist of DA
- Gαo1 activation (α2AR-D4.4R [4]): promoted Gαo1 activation
- Gαi1 activation (D4.4R [5]; Gαi1-mVenus): did not promote
- Gαo1 activation (D4.4R [5]; Gαo1-mVenus): did promote significant Gαo1 activation
- MAPK activation (ERK1/2 phosphorylation) [6]: significantly weaker than of dexmedetomidine
- Kd (D4.4R [7]; read-out: KDB1, vs [3H]YM-09151-2, HEK-293T co-expressing α2AR and D4.4R, n=3): 1.1 ± 0.1 nM
- koff1 of [3H]RX821002 (α2AR-D4.4R [8]): 0.25±0.07 ^* min^−1
- koff2 of [3H]RX821002 (α2AR-D4.4R [8]): 0.036±0.007 ^* min^−1
- Kd (α2R): 1400 nM

Compound: CC1c2ccccc2CN1CC1=NCCN1.O=C(O)/C=C\C(=O)O (stereo not shown) [BRL44408, BRL 44408 maleate]
- antagonist effect on NE- and DA-induced Gαi1 activation (α2AR-α2AR; [13]): significantly decreased the potency of NE and DA
- antagonist effect on NE- and DA-induced Gαi1 activation (α2AR-D4.7R [2]; [13]): significantly decreased the potency of NE and DA
- antagonist effect on NE- and DA-induced Gαi1 activation (α2AR-D4.4R [9]; [13]): significantly decreased the potency of NE and DA

Compound: Clc1cccc(Cl)c1N=C1NCCN1 [Clonidine, Clonidine hydrochloride]
- Emax (α2AR-α2AR): 18±2 % of NE
- Emax (α2AR-D4.4R [9]): 0 % of NE
- Emax (α2AR-D4.4R [9]; listed as clonidine): complete lack of efficacy

Compound: Cc1cccc([C@H](C)c2cnc[nH]2)c1C [Dexmedetomidine, Dexmedetomidine hydrochloride]
- Emax (α2AR-α2AR): 26±3 % of NE
- α2AR-mediated Gαo1 activation (α2AR (with D4.7R)): promotes a significant α2AR-mediated Gαo1 activation
- Gαo1 activation (α2AR-D4.7R [10]): able to activate Gαo1
- Kd (D4.4R [7]): 2000 to 6000 nM
- α2AR-mediated Gαo1 activation (α2AR (with D4.4R)): promotes a significant α2AR-mediated Gαo1 activation

Compound: N=C(N)NC(=O)Cc1c(Cl)cccc1Cl [Guanfacine, Guanfacine hydrochloride]
- Emax (α2AR-α2AR): 14±2 % of NE
- Emax (α2AR-D4.7R [2]): 20±3 % of NE
- Emax (α2AR-D4.4R [9]): 0 % of NE
- Emax (α2AR-D4.4R [9]; listed as guanfacine): complete lack of efficacy

Compound: NC[C@H](O)c1ccc(O)c(O)c1 [NE, norepinephrine]
- Emax (α2AR-α2AR): 100±3 % of NE
- increase in NE potency on α2AR-D4.7R compared with α2AR-D4.4R (α2AR-D4.7R [2]; Gαi1 CODA-RET): five-fold

Compound: Cc1cccc(C(=O)NCN2CCN(c3ccccc3C#N)CC2)c1 [PD168077]
- Kd (α2R): 80 ± 10 nM

Compound: CCCN[C@H]1CCc2nc(N)sc2C1 [Pramipexole, Pramipexole dihydrochloride]
- Emax (α2AR-D4.7R [2]): 48±5 % of NE
- Emax (α2AR-D4.4R [9]): 28±3 % of NE

Compound: COC1(C2=NCCN2)COc2ccccc2O1.Cl (stereo not shown) [RX821002, RX 821002 hydrochloride]
- displacement of [3H]YM-09151-2 (D4.4R [7]; any concentration up to 10 μM): did not displace

Compound: CCCN(CCC)CCc1cccc2c1CC(=O)N2 [Ropinirole]
- Emax (α2AR-α2AR): ineffective
- EC50 (α2AR-D4.4R [9]): 400 ± 200 nM

Compound: CCCN(CCc1cccs1)[C@H]1CCc2c(O)cccc2C1 [Rotigotine, Rotigotine hydrochloride]
- Emax (α2AR-α2AR): 0 % of NE
- Emax (α2AR-α2AR; listed as rotigotine): ineffective; also recorded: did not produce any response
- Emax (α2AR-D4.7R [2]): did not produce any response and 0 % of NE
- EC50 (α2AR-D4.4R [9]): 7 ± 5 nM
- Emax (α2AR-D4.4R [9]): 13±2 % of NE
- Emax (α2AR-D4.4R [9]; listed as rotigotine): small Gαi1 protein activation

Compound: COC1(C2=NCCN2)COc2ccccc2O1 (stereo not shown) [[^3H]RX821002]
- Kd (human α2AR): 0.62 ± 0.05 nM
- RT (residence time) of [3H]RX821002 (α2AR-D4.7R [11]): 17 min
- koff of [3H]RX821002 (α2AR-D4.7R [11]): 0.000967 ± 3.3e-05 s⁻¹
- RT1 (residence time) of [3H]RX821002 (α2AR-D4.4R [8]): 7 min
- RT2 (residence time) of [3H]RX821002 (α2AR-D4.4R [8]): 50 min
- koff1 of [3H]RX821002 (α2AR-D4.4R [8]): 0.14 ± 0.03 min⁻¹
- koff2 of [3H]RX821002 (α2AR-D4.4R [8]): 0.020 ± 0.004 min⁻¹

Compound: human dopamine D4.7 receptor fused to YFP (D4.7R-YFP)
- BRET50 [12]: 60
